Test results reported in PubChem BioAssay (NCI).
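Protocol summary: plate cells (96-well), add compound at 5 concentrations, incubate 48 h, interpolate endpoints linearly. TGI is the concentration that stops growth completely.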

Assays:
Assay in all cases: NCI tumour cell line growth inhibition, 48 h
[1] = system: EKVX NSCLC
[2] = system: SK-MEL-28 melanoma
[3] = system: U251 CNS
[4] = system: OVCAR-5 ovarian
[5] = system: RXF 393 renal
[6] = system: IGROV1 ovarian
[7] = system: HOP-92 NSCLC
[8] = system: SK-OV-3 ovarian
[9] = system: T-47D breast
[10] = system: MOLT-4 leukemia
[11] = system: HS 578T breast
[12] = system: UACC-257 melanoma
[13] = system: RPMI-8226 leukemia
[14] = system: NCI/ADR-RES ovarian
[15] = system: ACHN renal
[16] = system: 786-0 renal
[17] = system: M14 melanoma
[18] = system: A498 renal
[19] = system: SF-539 CNS
[20] = system: BT-549 breast
[21] = system: UO-31 renal
[22] = system: A549 NSCLC
[23] = system: MCF7 breast
[24] = system: NCI-H460 lung
[25] = system: HOP-62 NSCLC
[26] = system: PC-3 prostate
[27] = system: DU-145 prostate
[28] = system: UACC-62 melanoma
[29] = system: HT29 colon
[30] = system: SW-620 colon
[31] = system: KM12 colon
[32] = system: SR leukemia
[33] = system: SK-MEL-5 melanoma
[34] = system: SNB-19 CNS
[35] = system: SF-295 CNS
[36] = system: K-562 leukemia
[37] = system: MDA-MB-435
[38] = system: NCI-H226 lung
[39] = system: CCRF-CEM leukemia
[40] = system: TK-10 renal
[41] = system: MDA-N
[42] = system: MALME-3M melanoma
[43] = system: HL-60(TB) leukemia
[44] = system: HCT-15 colon
[45] = system: HCC-2998 colon
[46] = system: SN12C renal
[47] = system: SF-268 CNS
[48] = system: OVCAR-8 ovarian
[49] = system: SNB-75 CNS
[50] = system: NCI-H23 lung
[51] = system: COLO 205 colon
[52] = system: OVCAR-3 ovarian
[53] = system: CAKI-1 renal
[54] = system: SK-MEL-2 melanoma
[55] = system: LOX IMVI melanoma
[56] = system: NCI-H522 lung
[57] = system: MDA-MB-231 breast
[58] = system: OVCAR-4 ovarian
[59] = system: HCT-116 colon

`COc1cc(COC(=O)N(CC(=O)O)c2ccccc2)c([N+](=O)[O-])cc1OC` was tested, and the TGI [1] was over 100 µM, the TGI [2] was over 100 µM and the TGI [3] was over 100 µM. It also gave a TGI [4] of over 100 µM, a TGI [5] of over 100 µM and a TGI [6] of over 100 µM. It also gave a TGI [7] of over 100 µM, a TGI [8] of over 100 µM and a TGI [9] of over 100 µM. The TGI [10] was over 100 µM, the TGI [11] was over 100 µM and the TGI [12] was over 100 µM. The TGI [13] was over 100 µM, the TGI [14] was over 100 µM and the TGI [15] was over 100 µM. It also gave a TGI [16] of over 100 µM, a TGI [17] of over 100 µM and a TGI [18] of over 100 µM. For the same compound, the TGI [19] was over 100 µM, the TGI [20] was over 100 µM and the TGI [21] was over 100 µM. The TGI [22] was over 100 µM, the TGI [23] was over 100 µM and the TGI [24] was over 100 µM. The TGI [25] was over 100 µM, the TGI [26] was over 100 µM and the TGI [27] was over 100 µM. The TGI [28] was over 100 µM, the TGI [29] was over 100 µM and the TGI [30] was over 100 µM. The TGI [31] was over 100 µM, the TGI [32] was over 100 µM and the TGI [33] was over 100 µM. It also gave a TGI [34] of over 100 µM, a TGI [35] of over 100 µM and a TGI [36] of over 100 µM. For the same compound, the TGI [37] was over 100 µM, the TGI [38] was over 100 µM and the TGI [39] was over 100 µM. For the same compound, the TGI [40] was over 100 µM, the TGI [41] was over 100 µM and the TGI [42] was over 100 µM. The TGI [43] was over 100 µM, the TGI [44] was over 100 µM and the TGI [45] was over 100 µM. For the same compound, the TGI [46] was over 100 µM, the TGI [47] was over 100 µM and the TGI [48] was over 100 µM. The TGI [49] was over 100 µM, the TGI [50] was over 100 µM and the TGI [51] was over 100 µM. For the same compound, the TGI [52] was over 100 µM.

`CN(C)c1ccccc1CN1CCCN(Cc2ccccc2N(C)C)C1c1ccncc1` gave a TGI [53] of 34.6 µM, a TGI [1] of 38 µM and a TGI [2] of 23.7 µM. It also gave a TGI [3] of over 100 µM, a TGI [4] of 40.9 µM and a TGI [5] of 22.4 µM. It also gave a TGI [6] of 28.1 µM, a TGI [54] of 36.5 µM and a TGI [7] of 14.8 µM. It also gave a TGI [8] of 32.9 µM, a TGI [9] of 38.7 µM and a TGI [55] of 28.4 µM. For the same compound, the TGI [10] was 43.6 µM, the TGI [11] was 41.8 µM and the TGI [12] was 7.98 µM. It also gave a TGI [13] of 32.1 µM, a TGI [14] of 58 µM and a TGI [15] of 99.2 µM. It also gave a TGI [16] of 32.2 µM, a TGI [17] of 8.62 µM and a TGI [18] of 24.8 µM. The TGI [56] was 32.5 µM, the TGI [19] was 36 µM and the TGI [57] was 51.5 µM. It also gave a TGI [20] of 34.6 µM, a TGI [21] of 13.9 µM and a TGI [22] of 40.7 µM. It also gave a TGI [23] of 29.6 µM, a TGI [24] of 28.5 µM and a TGI [25] of 30.3 µM. The TGI [26] was over 100 µM, the TGI [27] was 31.5 µM and the TGI [28] was 27.6 µM. For the same compound, the TGI [29] was 26.5 µM, the TGI [30] was 42.2 µM and the TGI [58] was 33 µM. The TGI [31] was 41.7 µM, the TGI [32] was 21.7 µM and the TGI [33] was 18.3 µM. For the same compound, the TGI [34] was 33 µM, the TGI [35] was 29.8 µM and the TGI [36] was 23.9 µM. The TGI [37] was 20.2 µM, the TGI [38] was 38.7 µM and the TGI [40] was 28.4 µM. It also gave a TGI [41] of 23.8 µM, a TGI [42] of 23.4 µM and a TGI [59] of 23.3 µM. It also gave a TGI [43] of 32.4 µM, a TGI [44] of 51.7 µM and a TGI [46] of 62.2 µM. For the same compound, the TGI [47] was 37.9 µM, the TGI [48] was 29 µM and the TGI [49] was 32.1 µM. It also gave a TGI [50] of 43 µM, a TGI [51] of 30.3 µM and a TGI [52] of 28 µM.
